Results published in patent US12492403B2, “Aptamers and the use thereof in the treatment of cancer” (FUNDACIÓN PARA LA INVESTIGACIÓN BIOMÉDICA DEL HOSPITAL …, priority 2018, dated 2025).

Experiments:
[1] = tested on: orthotopic xenograft of MDA-MB-231 cells; assay: In vivo efficacy in orthotopic xenograft mouse model; set-up: species or system nude mice
Protocol: FIGS. 19A-19D. In vivo efficacy of apMNKQ2 in an orthotopic xenograft mouse model of MDA-MB-231 cells. (A) Evolution of the weight of the mouse over days of treatment with apMNKQ2 (FIG. 19A). (B) Relative tumor volume (RTV) over days of treatment (FIG. 19B). (C) Tumor weight after sacrificing the animal (FIG. 19C). (D) Immunohistochemical determination of proliferating cell nuclear antigen (PCNA) levels (FIG. 19D). The analysis of the positive nuclei was performed with the imageJ program. The boxes represent the mean±the maximum and minimum of 5-8 animals (*p<0.05 with respect to the control group).
FIGS. 20A-20D. Activation of apoptosis and expression of EMT markers in tumors from the mice with an orthotopic xenograft of MDA-MB-231 cells of FIG. 19. Immunodetection with specific antibodies by SDS-PAGE 12% of “cleaved” PARP ([…]), a-Spectrin (FIG. 20B) and the anti-apoptotic protein MCL1 (FIG. 20C) in tissue of mice treated with 1.8 mg/Kg of apMNKQ2 or with the vehicle. Expression levels of occludin (epithelial status marker) and FSP1 (mesenchymal marker) in tissue of mice treated with 1.8 mg/kg of apMNKQ2 or with the vehicle using qPCR (FIG. 20D). The values obtained were normalized with respect to β-actin. The boxes represent the mean±the maximum and the minimum of 4-5 animals (*p<0.05, **p<0.01 with respect to the control group).
For transfection in the in vivo model, the in vivo-jetPEI® transfection system (Polyplus, France) was used according to the manufacturer's instructions. The aptamer and jetPEI® reagent were separately diluted in glucose for the subsequent addition of the jetPEI® complex to that of the aptamer, such that the final glucose concentration is 5%. It was added to the cultures or injected into animals according to the assay.
Total RNA was obtained from cells using the NucleoZOL reagent ([…]-NAGEL, Germany) according to the manufacturer's instructions. Obtained RNA purity and integrity analyses were performed using the Experion™ RNA HighSens Analysis Kit chip (BioRad, USA). For the quantitative analysis of the mRNA levels, cDNAs were obtained with the SensiFAST™ cDNA synthesis kit (Bioline, United Kingdom) and real-time PCR was carried out in an IQ5 thermocycler (BioRad, USA) with the FastGene IC Green 2×qPCR Universal Mix kit (NIPPON Genetics, Germany).
In vivo assays were performed with nude mice inoculated with MDA-MB-231 cells and orthotopic tumors were generated. When these tumors reached a volume of 100 mm^3, the mice were randomly distributed into two groups of 9 animals. The treated group (1.8 mg/kg) was intravenously injected with 100 μl of 5% glucose containing 46 μg (5 nmol) of apMNKQ2 and 5.6 μl of jetPEI® transfectant (N/P ratio of 6) three times a week. The control group was injected with the 5% glucose solution containing the same volume of in vivo-jetPEI® reagent and aptamer buffer. As monitoring parameters, the tumor volume, assuming they are ellipsoids, and the weight of the animals were measured. At 18 days, the animals were sacrificed and the tumors were weighed and divided into two fragments, one to be frozen and another for fixing and inclusion in paraffin.
The immunohistochemical determination of the proliferating cell nuclear antigen (PCNA), sections of the paraffinized samples were made and they were then deparaffinized and rehydrated. The antigen was unmasked by incubating the sections in a 10 mM citrate buffer in a pressure cooker at maximum pressure for 2 minutes. After performing two quick washes with distilled water and two 5-minute washes with TBS, the sections were incubated in a blocking solution (3% fetal bovine serum in TBS with 0.05% triton X-100) for 30 minutes at room temperature. The samples were then incubated with the primary antibody PCNA (Santa Cruz Biotechnology, USA) at a dilution of 1:100 at room temperature overnight. […]

[2] = tested on: orthotopic xenograft of 4T1 cells; assay: In vivo efficacy in metastatic orthotopic 4T1 mouse model; set-up: species or system BALBc mice; settings: 3.6 mg/kg intravenously three times a week
Protocol: FIG. 21A-21E. In vivo efficacy of apMNKQ2 in a mouse metastatic model with an orthotopic xenograft of 4T1 cells. (A) Effect of apMNKQ2 aptamer on the proliferation of 4T1 cells (mouse breast tumor line). 4T1 cells were seeded in p96 at a density of 1.5×10^3 cells/well. […] The graph (FIG. 21A) represents the means±SEM of 3 independent experiments. (B) Effect of apMNKQ2 aptamer on migration and invasion of 4T1 cells. Cells were seeded in p6 at a density of 2×10^5 cells/well and transfected with 500 nM apMNKQ2 at 24 hours. At 6 hours they were deprived of serum, and after 24 hours they were collected and re-seeded (4×10^4 cells/well) in a transwell […]. At 24 hours (migration) or 48 h (invasion), the transwell membranes were stained with Hoechst and the cells that had passed through the fluorescence microscopy were quantified. Values (FIG. 21B) represent the mean±SEM of 2-3 independent experiments. In vivo efficacy of apMNKQ2 in a mouse metastatic model with an orthotopic xenograft of 4T1 cells. (C) Evolution of mouse weight on the days of treatment with apMNKQ2 (FIG. 21C). (D) Relative tumor volume (RTV) throughout the days of treatment (FIG. 21D). (E) Number of lung metastases (FIG. 21E). The number of metastases is analyzed by the reverse staining method (with Chinese ink) and the metastases grouped according to their size in four groups (0.5, 1, 2 and >2). The stacked bars correspond to each group and represent the mean±SEM of 8-9 animals (*p<0.05 with respect to the control group).
The anti-tumour activity and the effect on and spontaneous metastasis of aptamers in BALBc mice bearing ortothopically […] 4T1 breast tumours. […] As monitoring parameters, the tumor volume, assuming they are ellipsoids, and the weight of the animals were measured. […]
To study the ability of apMNKQ2 to reduce metastasis in vivo, an orthotopic xenograft model with a murine tumor line of triple negative breast cancer, 4T1, was used. […] First, the effect of apMNKQ2 on 4T1 cells in vitro was analyzed. […]

[3] = tumors of mice treated with 1.8 mg/kg vs vehicle

5′TGGGGTGGGCGGGCGGGGGTGGGGGTGGT-3′ (DNA, backbone and methylation of C not given here; further chemistry not fully specified) [apMNKQ2]
decrease of cell proliferation in the tumor (PCNA immunohistochemistry) with respect to the control group ([1]; 1.8 mg/kg intravenously three times a week, 18 days): 50% | decrease of the weight of the tumor after sacrificing the animals ([1]; 1.8 mg/kg intravenously three times a week, 18 days, not statistically significant): 27% | weight of the mice ([1]; 1.8 mg/kg intravenously with jetPEI three times a week, 18 days): no changes | relative size of the tumor (relative tumor volume) vs control group ([1]; intravenous with jetPEI three times a week, statistically significant at 7 and 18 days of treatment): smaller | apoptosis in tumors (cleaved PARP, α-spectrin, MCL1 immunodetection) ([1]; tumors of mice treated with 1.8 mg/Kg vs vehicle): apoptotic effect | mRNA levels of the mesenchymal marker FSP1 in tumors (qPCR) [1, 3]: decrease (although not significant) | occludin epithelial marker expression in tumors (qPCR) [1, 3]: increases significantly | size of the tumors (relative tumor volume) ([2]; 18 days): does not produce changes | weight of the mice ([2]; 18 days): does not produce changes | number of lung metastasis ([2]; statistically significant for metastasis of 2 mm): decreased
